Measured values as given in patent publication US7834065B2, “Medical-use two part reactive adhesive and medical-use resin having self-degradation property” (BMG Incorporated, priority 2006, dated 2010).

Test system: mouse established cell line L929
Assay: Cytotoxicity test (neutral red uptake, NR50)
Type: cell-based
Conditions: L929 cells, 2 days incubation with sample; concentration at which 50% of the cells are killed
Protocol: The cytotoxicity test was made according to methods described in J. Biomed. Mater. Res. 29, 829-835 (1995) and by use of a mouse established cell line L929. In detail, cell dispersion was prepared to be 10,000 cells/mL; and 0.1 mL of the cell dispersion was sowed in each well of the 96-well culture plate and incubated at 37° C. for 3 days. Subsequently, each of the aqueous solutions mentioned above was diluted to one of various concentrations, and was charged into respective well by 0.1 mL. Then, incubation was further continued for 2 days. Subsequently, 0.1 mL of neural red culture-medium solution as prepared as 150 microgram/mL was added into the each well; and the incubation was made at 37° C. for 3 hours. After the incubation, culture medium was removed; and the cells were fixed by 1 wt % glutaraldehyde aqueous solution and thereafter air-dried. Subsequently, 0.1 mL of water/ethanol solution (equal-volume mixture) having 1 wt % of acetic acid was added; and then neural red molecules that had been taken into the cells were extracted. Light absorbency at 541 nm was measured and NR50 values were obtained from result of this measurement. The NR50 value indicates a concentration at which 50% of the cells are killed. The smaller the NR50 value becomes, the larger becomes the toxicity.

| SMILES | NR50 value |
| --- | --- |
| O=CCCCC=O [Glutaraldehyde] | 3.9 ± 0.7 µg/mL |
| C=O [Formaldehyde] | 1.7 ± 02 µg/mL |
